Source: ChEMBL document CHEMBL4616720 (J Med Chem, 2020)

What was measured:
[1] = molecular target: T1, Peptide deformylase, mitochondrial (Homo sapiens, UniProt Q9HBH1); experiment: Inhibition of human PDF expressed in Escherichia coli BL21 pLysS using formyl-Met-Ala-His-Ala peptide as substrate measured after 1 hr by fluorescamine-based fluorescence assay
T1 sequence (Q9HBH1 whole entry): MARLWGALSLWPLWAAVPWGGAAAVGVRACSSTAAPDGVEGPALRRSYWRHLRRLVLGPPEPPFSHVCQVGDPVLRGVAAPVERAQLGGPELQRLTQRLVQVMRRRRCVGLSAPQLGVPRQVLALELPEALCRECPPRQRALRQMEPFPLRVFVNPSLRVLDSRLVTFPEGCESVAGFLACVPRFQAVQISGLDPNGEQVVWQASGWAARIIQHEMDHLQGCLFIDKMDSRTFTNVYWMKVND

[2] = test system: HL-60; experiment: Antiproliferative activity against human HL60 cells assessed as reduction in cell growth measured after 48 hrs by CCK8 assay; type: functional, cell-based; settings: HL-60, 48 h
[3] = test system: MCF7; experiment: Antiproliferative activity against human MCF7 cells assessed as reduction in cell growth measured after 48 hrs by CCK8 assay; type: functional, cell-based; settings: MCF7, 48 h
[4] = test system: HCT-116; experiment: Antiproliferative activity against human HCT116 cells assessed as reduction in cell growth measured after 48 hrs by CCK8 assay; type: functional, cell-based; settings: HCT-116, 48 h
[5] = test system: MCF-10A; experiment: Cytotoxicity against human MCF10A cells assessed as reduction in cell growth measured after 48 hrs by CCK8 assay; type: cell-based
[6] = test system: SJSA-1; experiment: Antiproliferative activity against human SJSA1 cells assessed as reduction in cell growth measured after 48 hrs by CCK8 assay; type: functional, cell-based; settings: SJSA-1, 48 h
[7] = test system: A549; experiment: Antiproliferative activity against human A549 cells assessed as reduction in cell growth measured after 48 hrs by CCK8 assay; type: functional, cell-based; settings: A549, 48 h
[8] = molecular target: T2, Protein deacetylase HDAC6 (Homo sapiens, UniProt Q9UBN7); experiment: Inhibition of HDAC6 (unknown origin) using Boc-Lys(Ac)-pNA as substrate preincubated for 20 mins followed by substrate addition and further incubated for 90 mins by fluorescence assay
T2 sequence (Q9UBN7 whole entry): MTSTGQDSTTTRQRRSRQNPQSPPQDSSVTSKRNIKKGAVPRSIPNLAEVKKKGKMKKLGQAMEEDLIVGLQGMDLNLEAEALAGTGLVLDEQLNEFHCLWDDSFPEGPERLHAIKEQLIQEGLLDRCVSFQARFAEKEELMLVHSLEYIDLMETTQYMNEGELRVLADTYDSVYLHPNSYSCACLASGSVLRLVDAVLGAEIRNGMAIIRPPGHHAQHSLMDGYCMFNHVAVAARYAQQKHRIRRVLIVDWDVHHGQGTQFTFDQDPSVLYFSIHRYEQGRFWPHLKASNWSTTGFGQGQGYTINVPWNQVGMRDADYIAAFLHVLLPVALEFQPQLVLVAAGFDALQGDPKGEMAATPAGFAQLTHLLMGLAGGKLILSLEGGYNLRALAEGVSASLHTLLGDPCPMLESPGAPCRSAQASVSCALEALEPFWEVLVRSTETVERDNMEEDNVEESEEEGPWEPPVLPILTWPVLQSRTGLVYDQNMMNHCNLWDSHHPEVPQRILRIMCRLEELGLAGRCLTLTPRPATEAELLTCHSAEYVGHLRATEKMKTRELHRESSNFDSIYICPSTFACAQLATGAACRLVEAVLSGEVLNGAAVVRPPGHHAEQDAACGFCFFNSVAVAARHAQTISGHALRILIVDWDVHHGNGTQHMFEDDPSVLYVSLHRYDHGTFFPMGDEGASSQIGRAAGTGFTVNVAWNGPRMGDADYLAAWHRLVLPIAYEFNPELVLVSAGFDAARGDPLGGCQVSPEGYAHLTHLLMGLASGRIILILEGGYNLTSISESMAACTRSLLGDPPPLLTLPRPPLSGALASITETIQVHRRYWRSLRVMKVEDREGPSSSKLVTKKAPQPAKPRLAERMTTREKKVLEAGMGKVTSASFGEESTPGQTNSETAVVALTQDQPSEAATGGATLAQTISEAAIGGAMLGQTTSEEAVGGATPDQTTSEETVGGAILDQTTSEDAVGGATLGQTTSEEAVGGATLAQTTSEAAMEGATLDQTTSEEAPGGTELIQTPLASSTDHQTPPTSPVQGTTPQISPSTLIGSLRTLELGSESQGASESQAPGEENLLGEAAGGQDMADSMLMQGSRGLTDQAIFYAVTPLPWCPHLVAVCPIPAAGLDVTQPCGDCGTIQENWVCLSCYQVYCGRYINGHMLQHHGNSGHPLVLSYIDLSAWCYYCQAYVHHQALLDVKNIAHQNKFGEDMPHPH

[9] = molecular target: T3, Histone deacetylase 1 (Homo sapiens, UniProt Q13547); experiment: Inhibition of HDAC1 (unknown origin) using Boc-Lys(Ac)-pNA as substrate preincubated for 20 mins followed by substrate addition and further incubated for 90 mins by fluorescence assay
[10] = molecular target: T4, Protein deacetylase HDAC6 (Homo sapiens) (UniProt Q9UBN7); experiment: Inhibition of HDAC6 (unknown origin) at 10 uM using Boc-Lys(Ac)-pNA as substrate preincubated for 20 mins followed by substrate addition and further incubated for 90 mins by fluorescence assay relative to control
T4 sequence (whole entry): T2 sequence (Q9UBN7 whole entry)

[11] = molecular target: T3, Histone deacetylase 1; experiment: Inhibition of HDAC1 (unknown origin) at 10 uM using Boc-Lys(Ac)-pNA as substrate preincubated for 20 mins followed by substrate addition and further incubated for 90 mins by fluorescence assay relative to control

T3 sequence (Q13547 whole entry): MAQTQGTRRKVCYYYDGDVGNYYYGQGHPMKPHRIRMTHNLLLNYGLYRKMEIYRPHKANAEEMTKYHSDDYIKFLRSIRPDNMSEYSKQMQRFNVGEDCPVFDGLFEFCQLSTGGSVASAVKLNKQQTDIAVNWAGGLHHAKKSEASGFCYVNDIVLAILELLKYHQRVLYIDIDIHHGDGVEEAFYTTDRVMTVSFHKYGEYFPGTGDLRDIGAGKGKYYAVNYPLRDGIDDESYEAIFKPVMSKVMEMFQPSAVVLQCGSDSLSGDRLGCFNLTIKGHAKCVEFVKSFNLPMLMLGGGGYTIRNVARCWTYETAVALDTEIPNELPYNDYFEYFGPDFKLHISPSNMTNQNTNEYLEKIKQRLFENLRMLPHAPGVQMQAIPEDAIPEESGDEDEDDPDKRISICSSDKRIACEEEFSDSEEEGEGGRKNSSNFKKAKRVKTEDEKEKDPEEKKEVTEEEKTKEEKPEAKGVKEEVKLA

SMILES | IC50 [1] | IC50 [4] | further results
O=C(C[C@@H](CC1CCCC1)C(=O)N1CC2(CC2)C[C@H]1c1nc(-c2ccc(Br)cc2)no1)NO | 5.48 nM | 2.87 µM | IC50 [2]: 2.17 µM; IC50 [3]: 3.56 µM; IC50 [5]: 21.7 µM; IC50 [6]: 2.56 µM; IC50 [7]: 2610 nM
CCc1ccc(-c2noc([C@@H]3CC4(CC4)CN3C(=O)[C@@H](CC(=O)NO)CC3CCCC3)n2)cc1 | 8.81 nM | 2.31 µM | IC50 [2]: 1.88 µM; IC50 [3]: 3.95 µM; IC50 [5]: 19.9 µM; IC50 [6]: 2.82 µM; IC50 [7]: 2430 nM
Cc1cnc(NC(=O)[C@@H]2CCCN2C(=O)[C@@H](CC(=O)NO)CC2CCCC2)s1 | 8.94 nM | > 40 µM | 
O=C(C[C@@H](CC1CCCC1)C(=O)N1CCC[C@H]1C(=O)Nc1ccc(F)cn1)NO | 10.9 nM | > 40 µM | 
C=C1C[C@@H](C(=O)Nc2ccc(F)cn2)N(C(=O)[C@@H](CC(=O)NO)CC2CCCC2)C1 | 7.15 nM | > 40 µM | 
O=C(C[C@@H](CC1CCCC1)C(=O)N1CC2(CC2)C[C@H]1c1nc(-c2cnccn2)no1)NO | 16.1 nM | > 40 µM | 
Cc1cc(C)cc(C(=O)NOCCCCCC(=O)NO)c1 |  |  | IC50 [8]: 12 nM; IC50 [9]: 58 nM
CCCC[C@H](CC(=O)NO)C(=O)N1CC2(CC2)C[C@H]1C(=O)Nc1ncc(C)s1 | 9.42 nM | > 40 µM | 
O=C(C[C@@H](CC1CCCC1)C(=O)N1CC2(CC2)C[C@H]1c1nc(-c2ccc(F)cn2)no1)NO | 5.01 nM | > 40 µM | 
O=C(C[C@@H](CC1CCCC1)C(=O)N1CC2(CC2)C[C@H]1c1nc(-c2cc(F)cc(F)c2F)no1)NO | 7.08 nM | 3.62 µM | 
O=C(C[C@@H](CC1CCCC1)C(=O)N1CC2(CC2)C[C@H]1C(=O)Nc1ccc(F)cc1C(F)(F)F)NO | 7.01 nM | 24.5 µM | 
Cc1cnc(NC(=O)[C@@H]2CC3(CC3)CN2C(=O)[C@@H](CC(=O)NO)CC2CCCC2)s1 | 2.78 nM | 18.7 µM | 
O=C(C[C@@H](CC1CCCC1)C(=O)N1CC2(CC2)C[C@H]1c1nc(-c2ccc(C(F)(F)F)cc2)no1)NO | 7.19 nM | 4.11 µM | IC50 [2]: 3.06 µM; IC50 [3]: 5.79 µM; IC50 [5]: 22.4 µM; IC50 [6]: 2.95 µM; IC50 [7]: 3450 nM
O=C(C[C@@H](CC1CCCC1)C(=O)N1CC2(CC2)C[C@H]1c1nc(-c2ccc(C3CC3)cc2)no1)NO | 5.01 nM | 3.47 µM | 
O=C(C[C@@H](CC1CCCC1)C(=O)N1CC2(CC2)C[C@H]1c1nc(-c2ccccc2)no1)NO | 3.77 nM | 4.46 µM | IC50 [8]: > 10000 nM; inhibition [10]: 1.08%; IC50 [9]: > 10000 nM; IC50 [2]: 3.58 µM; IC50 [3]: 8.64 µM; IC50 [5]: 32.3 µM; IC50 [6]: 3.8 µM; inhibition [11]: -0.95%; IC50 [7]: 2550 nM
CCCC[C@H](CC(=O)NO)C(=O)N1CC2(CC2)C[C@H]1C(=O)Nc1ccc(F)cn1 | 4.92 nM | > 40 µM | 
O=C(C[C@@H](CC1CCCC1)C(=O)N1CC2(CC2)C[C@H]1c1nc(-c2ccc(C(F)(F)F)cc2F)no1)NO | 4.85 nM | 10 µM | IC50 [2]: 4.77 µM; IC50 [3]: 10.6 µM; IC50 [5]: 29.1 µM; IC50 [6]: 8.7 µM; IC50 [7]: 10300 nM
Cc1noc([C@@H]2CC3(CC3)CN2C(=O)[C@@H](CC(=O)NO)CC2CCCC2)n1 | 29.3 nM | > 40 µM | 
Cc1ccc(-c2noc([C@@H]3CC4(CC4)CN3C(=O)[C@@H](CC(=O)NO)CC3CCCC3)n2)cc1 | 9.26 nM | 7.78 µM | IC50 [2]: 5.35 µM; IC50 [3]: 9.89 µM; IC50 [5]: 29.8 µM; IC50 [6]: 5.35 µM; IC50 [7]: 8690 nM
O=C(C[C@@H](CC1CCCC1)C(=O)N1CC2(CC2)C[C@H]1c1nc(-c2ccc(C(F)(F)F)cc2Cl)no1)NO | 6.47 nM | 3.49 µM | IC50 [2]: 3.45 µM; IC50 [3]: 5.78 µM; IC50 [5]: 28.4 µM; IC50 [6]: 3.15 µM; IC50 [7]: 2530 nM
CCCCc1ccc(-c2noc([C@@H]3CC4(CC4)CN3C(=O)[C@@H](CC(=O)NO)CC3CCCC3)n2)cc1 | 4.24 nM | 2.07 µM | 

The next lines start with results.

IC50 [1] | IC50 [4] | SMILES | further results
30.2 nM | > 40 µM | Cn1cc(NC(=O)[C@@H]2CC3(CC3)CN2C(=O)[C@@H](CC(=O)NO)CC2CCCC2)cn1 | 
3.58 nM | 11.2 µM | Cc1ccc(NC(=O)[C@@H]2CC3(CC3)CN2C(=O)[C@@H](CC(=O)NO)CC2CCCC2)cc1 | 
5.87 nM | 20.2 µM | O=C(C[C@@H](CC1CCCC1)C(=O)N1CC2(CC2)C[C@H]1C(=O)Nc1ccc(F)cn1)NO | 
6.12 nM | 5.35 µM | O=C(C[C@@H](CC1CCCC1)C(=O)N1CC2(CC2)C[C@H]1C(=O)Nc1ccc(Br)cc1)NO | 
9.53 nM | > 40 µM | O=C(C[C@@H](CC1CCCC1)C(=O)N1CC2(CC2)C[C@H]1C(=O)Nc1ccncn1)NO | 
6.42 nM | 14.9 µM | O=C(C[C@@H](CC1CCCC1)C(=O)N1CC2(CC2)C[C@H]1C(=O)Nc1ccccc1)NO | 
13.1 nM | > 40 µM | O=C(C[C@@H](CC1CCCC1)C(=O)N1CC2(CC2)C[C@H]1C(=O)Nc1cccnn1)NO | 
8.74 nM | > 40 µM | O=C(C[C@@H](CC1CCCC1)C(=O)N1CC2(CC2)C[C@H]1C(=O)Nc1nccs1)NO | 
5.87 nM | > 40 µM | O=C(C[C@@H](CC1CCCC1)C(=O)N1CC2(CC2)C[C@H]1C(=O)Nc1cnccn1)NO | 
2.99 nM | 29.1 µM | Cc1csc(NC(=O)[C@@H]2CC3(CC3)CN2C(=O)[C@@H](CC(=O)NO)CC2CCCC2)n1 | 
